Results as given in patent US4666929A, “Anthranilic acid ester derivatives and antiinflammatory and analgetic external preparations containing the same” (Shiseido Company Ltd., priority 1985, dated 1987).

Columns and labels:
[1] = system: pain induced by the brewer's yeast; test: Evaluation Test Example 7 (Analgetic Activity), Randall-Selitto method; type: in vivo, rat; settings: topical, 2.5 mg/paw, 5 hours after injection of brewer's yeast
Procedure: This method is admitted as a standard method for evaluating non-anesthetic analgesic agent.
The test sample compounds were applied to the both foot pad of hind paws of the rats each in an application amount of 50 μl as a 2.5% ethanol solution. After one hour, 50 μl each of the ethanol solution of the sample compound was again applied and 0.1 ml of a 5% brewer's yeast/physiological saline was immediately subcutaneously applied to one foot pad of the rat as a pain inducing substance. After a predetermined time period, the weight of the pain generation was measured using a horizontal balance type presser and the decrease rate (P1) of the pain threshold value was determined. The above-mentioned evaluation test procedure was also carried out in the control rat group, except that the solvent containing no sample compounds was applied. Thus, the decrease rate (P0) of the pain threshold value in the control group was determined. The inhibition (%) of the pain induced by the brewer's yeast was calculated as follows: [formula] When this value is large, the analgetic activity is high.

UV induced erythema [2] = test: Evaluation Test Example 6 (Antiinflammatory Activity), ultraviolet erythema method; type: in vivo, guinea pig; settings: topical; for Prevention % (UV induced erythema): 25 μg/cm^2, 3 hours after UV irradiation
Procedure: (§1) Healthy Hartley strain albino guinea pigs (i.e., body weight=450-500 g, 10 pigs in each group) were used as the test animals. The back skin of the guinea pigs was clipped and shaved, and sections having a size of 1.41 cm×1.41 cm were prepared in the back skin, by using a rubber plate, symmetrically spaced from the back center line. The divided sections were irradiated with ultraviolet ray having a medium wavelength (i.e., 280-320 nm, λmax =305 nm) to induce erythema. After the UV irradiation, 10 μl of a solution of the test sample compound in olive oil was applied to the sections on one side. The formation of the erythema was observed over a period of time. The average erythema (E1) in the section to which the sample compound was applied and the average erythema (E0) in the section to which no sample compounds were applied were measured. […] [formula] When the inhibitory value (%) is large, the antiinflammatory activity of the sample compound is high.
The anti-inflammatory activity test of 2-furanmethyl-N-(2,3-xylyl)anthranilate was carried out in the same manner as in Evaluation Test Example 5.

ICR female mice = test: in vivo
Procedure: (§2) The evaluation test was carried out using ICR female mice (i.e., body weight=18 to 22 g, 10 mice in each group).
(§3) The sample compounds listed in Table 3 were dispersed in 2.0% carboxymethyl cellulose/physiological saline solution and orally administered in a given amount by a peroral syringe. After the administration, the toxic conditions were observed and the oral acute toxicity (LD50) was calculated from the death number according to a Van Der Werden method.

in vivo [3] = settings: mouse, in vivo; oral, ICR female mice
Procedure: as §2, §3

[4] = system: carrageenan foot pad edema; test: Evaluation Test Example 4 (Antiinflammatory Activity), rat/carrageenan foot pad edema method; type: in vivo; settings: oral, 100 mg/kg; for Prevention % (carrageenan edema): 5 hours after λ-carrageenan injection
Procedure: (§4) The antiinflammatory effects of the present compounds were determined according to the so-called rat/carrageenan foot pad edema method. This method is admitted as a standard test method for determining antiinflammatory effects, because this method has a high correlationship with human antiinflammatory effects.
(§5) The evaluation test was carried out using Wister male rats (i.e., body weight =110-130 g, 8 rats in each group) according to a Winter et al method set forth in "Proceedings of the Society for Experimental Biology & Medicine, 111, p 554, 1962).
(§6) The sample compounds listed in Table 4 were dispersed in a 0.5% aqueous carboxymethyl cellulose solution and orally administered in a dosage of 100 mg/kg. One hour after the administration, 0.1 ml of a 1% λ-carrageenan/physiological saline was subcutaneously applied to the foot pad of one paw of the rat as an inflammatory inducing substance. Thus, the edema was caused. The volumes of the foot pad were measured in the predetermined constant time period before and after the administration and the increase (V1) in the volume was calculated. On the other hand, the increase (V0) in the volume of the foot pad of the control rats, to which the aqueous 0.5% carboxymethyl cellulose solution containing no test sample compounds, was determined by injecting the λ-carageenan. Thus, the inhibition (%) of the carageenan edema was calculated as follows: [formula] The antiinflammatory activity is high when this value is large.
The evaluation test of 2-furanmethyl-N-(2,3-xylyl) anthranilate was carried out in the same manner as in Evaluation Test Example 3.

[5] = background art; cited from earlier work
[6] = system: carrageenan foot pad edema; test: Evaluation Test Example 3 (Antiinflammatory Activity), rat/carrageenan foot pad edema method; type: in vivo; settings: oral, 100 mg/kg, 5 hours after λ-carrageenan injection
Procedure: as §4, §5, §6

UV induced erythema [7] = test: Evaluation Test Example 5 (Antiinflammatory Activity), ultraviolet erythema method; type: in vivo, guinea pig; settings: topical, 25 μg/cm^2, 3 hours after UV irradiation
Procedure: The evaluation test of N-(2,3-xylyl) anthranilic acid derivatives was carried out according to the so-called ultraviolet erythema method.
as §1

[8] = oral administration, background art; cited from earlier work
in vivo [9] = settings: mouse, oral, ddY male mice, 7 days of observation
Procedure: The evaluation test was carried out using ddY male mice (i.e., body weight =18 to 22 g, 10 mice in each group).
The sample compound listed in Table 2 was dispersed in 0.5% carboxymethyl cellulose/physiological saline solution and orally administered in a given amount by a peroral syringe. After the administration, the toxic conditions were observed and the oral acute toxicity (LD50) was calculated from the death number during 7 days of observation according to a Litchfield Wilcoxon method.

Cc1cccc(Nc2ccccc2C(=O)OCCc2ccccn2)c1C [2-(2-pyridyl)ethyl-N-(2,3-xylyl)anthranilate]
Inhibition % (pain induced by brewer's yeast) [1]: 45.5%

CC(C)Cc1ccc(C(C)C(=O)OCc2ccccn2)cc1 (centres unmarked) [2-(p-isobutylphenyl)propionic acid-2-pyridylmethyl ester, reference compound]
Inhibition % (pain induced by brewer's yeast) [1]: 39.2%

Cc1cccc(Nc2ccccc2C(=O)OCc2ccco2)c1C [2-furanmethyl-N-(2,3-xylyl)anthranilate]
Prevention % (UV induced erythema) (UV induced erythema [2]): 54.3% | erythema [inhibition] versus N-(2,3-xylyl)anthranilic acid (UV induced erythema [2]; 25 μg/cm^2, in words): stronger than that of the known N-(2,3-xylyl)anthranilic acid | LD50 relative to known N-(2,3-xylyl)anthranilic acid (ICR female mice; oral): about 4 times higher | toxicity (ICR female mice; oral acute toxicity, in words): very low | LD50 (in vivo [3]): 5480 mg/kg | Inhibition % (pain induced by brewer's yeast) [1]: 56.5% | Prevention % (carrageenan edema) [4]: 50.7% | edema inhibitory activity versus N-(2,3-xylyl)anthranilic acid ([4]; in words): as strong as for the known N-(2,3-xylyl)anthranilic acid

Cc1cccc(Nc2ccccc2C(=O)OCc2ccccn2)c1C [2-pyridylmethyl-N-(2,3-xylyl)anthranilate]
Inhibition % (pain induced by brewer's yeast) [1]: 53.6%

Cc1cccc(Nc2ccccc2C(=O)OCc2cccnc2)c1C [3-pyridylmethyl-N-(2,3-xylyl)anthranilate]
Inhibition % (pain induced by brewer's yeast) [1]: 48.3%

Cc1cccc(Nc2ccccc2C(=O)O)c1C [N-(2,3-xylyl)anthranilic acid, reference compound]
solubility in water, an alcohol, or an oil [5]: very difficult to dissolve | Inhibition % (carrageenan edema) [6]: 56.8% | Prevention % (UV induced erythema) (UV induced erythema [2]): 35.4% | Inhibition % (UV induced erythema) (UV induced erythema [7]): 32.8% | side effects [8]: various side effects including enterogasteric disorders, renal disorders, and vertigo occur | Inhibition % (pain induced by brewer's yeast) [1]: 32.8% | Prevention % (carrageenan edema) [4]: 46.8%

Cc1cccc(Nc2ccccc2C(=O)OCc2ccccn2)c1C [drawing 4]
LD50 at 168 h (in vivo [9]): 4420 mg/kg

Cc1cccc(Nc2ccccc2C(=O)OCc2cccnc2)c1C [drawing 5]
LD50 at 168 h (in vivo [9]): 3820 mg/kg

Cc1cccc(Nc2ccccc2C(=O)OCc2ccncc2)c1C [drawing 6]
LD50 at 168 h (in vivo [9]): 4850 mg/kg

Cc1cccc(Nc2ccccc2C(=O)OCCc2ccccn2)c1C [drawing 7]
LD50 at 168 h (in vivo [9]): 4100 mg/kg

Cc1cccc(Nc2ccccc2C(=O)OCCCc2cccnc2)c1C [drawing 8]
LD50 at 168 h (in vivo [9]): 3750 mg/kg

Cc1cccc(Nc2ccccc2C(=O)OCc2ccccn2)c1C [drawing 9]
Inhibition % (carrageenan edema) [6]: 61.3%

Cc1cccc(Nc2ccccc2C(=O)OCc2cccnc2)c1C [drawing 10]
Inhibition % (carrageenan edema) [6]: 55.2%

Cc1cccc(Nc2ccccc2C(=O)OCc2ccncc2)c1C [drawing 11]
Inhibition % (carrageenan edema) [6]: 53.5%

Cc1cccc(Nc2ccccc2C(=O)OCc2ccccn2)c1C [drawing 12]
Inhibition % (UV induced erythema) (UV induced erythema [7]): 47.6%

Cc1cccc(Nc2ccccc2C(=O)OCc2cccnc2)c1C [drawing 13]
Inhibition % (UV induced erythema) (UV induced erythema [7]): 51.3%

Cc1cccc(Nc2ccccc2C(=O)OCc2ccncc2)c1C [drawing 14]
Inhibition % (UV induced erythema) (UV induced erythema [7]): 43.1%

Cc1cccc(Nc2ccccc2C(=O)OCCc2ccccn2)c1C [drawing 15]
Inhibition % (UV induced erythema) (UV induced erythema [7]): 35.4%

Cc1cccc(Nc2ccccc2C(=O)OCCCc2cccnc2)c1C [drawing 16]
Inhibition % (UV induced erythema) (UV induced erythema [7]): 33.2%
